Measurements taken from patent US6638957B1, “Use of compounds with a nitrogen-oxygen heterocycle” (Jomaa Pharmaka GmbH, priority 1999, dated 2003).
In brackets after ≈: the same amount, converted by molar mass. Like-named read-outs stand apart in the source and are kept apart here.

Assays:
[1] = system: Abutilon theophrasti; test: herbicidal activity, Erde Nachauflauf; format: in vivo; conditions: for pest or weed control at 500 g/ha: 500 Gramm/Hektar
Experimental: (§1) The determination of herbicidal activity is performed according to standard procedure. Again the compounds listed on page 9 are tested.

[2] = system: Alopecurus myosuroides; test: herbicidal activity, Erde Nachauflauf; format: in vivo; conditions: for pest or weed control at 500 g/ha: 500 Gramm/Hektar
Experimental: as §1

[3] = system: Galium aperine; test: herbicidal activity, Erde Nachauflauf; format: in vivo; conditions: for pest or weed control at 500 g/ha: 500 Gramm/Hektar
Experimental: as §1

[4] = system: Sinapis arvensis; test: herbicidal activity, Erde Nachauflauf; format: in vivo; conditions: Mutarda arvensis; for pest or weed control at 500 g/ha: 500 Gramm/Hektar
Experimental: as §1

[5] = system: Setaria viridis; test: herbicidal activity, Erde Nachauflauf; format: in vivo; conditions: for pest or weed control at 500 g/ha: 500 Gramm/Hektar
Experimental: as §1

[6] = system: Cyperus esculentus; test: herbicidal activity, Erde Nachauflauf; format: in vivo; conditions: for pest or weed control at 500 g/ha: 500 Gramm/Hektar
Experimental: as §1

[7] = system: Avena fatua; test: herbicidal activity, Erde Nachauflauf; format: in vivo; conditions: for pest or weed control at 500 g/ha: 500 Gramm/Hektar
Experimental: as §1

[8] = system: Beta vulgaris; test: herbicidal activity, Erde Nachauflauf; format: in vivo; conditions: for plant injury at 500 g/ha: 500 Gramm/Hektar
Experimental: as §1

[9] = system: Amaranthus retroflexus; test: herbicidal activity, Erde Nachauflauf; format: in vivo; conditions: for pest or weed control at 500 g/ha: 500 Gramm/Hektar
Experimental: as §1

[10] = system: Zea mays; test: herbicidal activity, Erde Nachauflauf; format: in vivo; conditions: for plant injury at 500 g/ha: 500 Gramm/Hektar
Experimental: as §1

[11] = system: Xanthium strumarium; test: herbicidal activity, Erde Nachauflauf; format: in vivo; conditions: for pest or weed control at 500 g/ha: 500 Gramm/Hektar
Experimental: as §1

[12] = target: T1, DOXP reductoisomerase of Escherichia coli (UniProt P56139); test: inhibition of recombinant DOXP reductoisomerase (NADPH oxidation); format: biochemical; conditions: 1 mM DOXP, 0,3 mM NADPH, pH 7,5; read-out: IC50(nM) of DOXP reductoisomerase from Helicobacter pilori
T1 sequence (P56139 1-368): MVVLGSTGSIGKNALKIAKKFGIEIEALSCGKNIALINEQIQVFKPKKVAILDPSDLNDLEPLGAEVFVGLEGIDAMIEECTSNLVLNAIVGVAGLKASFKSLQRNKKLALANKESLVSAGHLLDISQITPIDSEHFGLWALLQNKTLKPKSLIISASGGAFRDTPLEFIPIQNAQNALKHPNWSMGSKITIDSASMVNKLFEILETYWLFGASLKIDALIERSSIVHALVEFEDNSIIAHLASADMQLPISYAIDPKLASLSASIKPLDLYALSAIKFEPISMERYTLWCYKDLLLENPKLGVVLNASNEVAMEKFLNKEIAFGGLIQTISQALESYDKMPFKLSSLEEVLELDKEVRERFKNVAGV

[13] = system: Solanum; test: herbicidal activity, Hydro Vorauflauf; format: in vivo; conditions: for pest or weed control at 1000 g/ha: 1000 Gramm/Hektar
Experimental: as §1

[14] = system: Echinochloa; test: herbicidal activity, Hydro Vorauflauf; format: in vivo; conditions: for pest or weed control at 1000 g/ha: 1000 Gramm/Hektar
Experimental: as §1

[15] = system: Lepidium; test: herbicidal activity, Hydro Vorauflauf; format: in vivo; conditions: for pest or weed control at 1000 g/ha: 1000 Gramm/Hektar
Experimental: as §1

[16] = system: Reis; test: herbicidal activity, Hydro Vorauflauf; format: in vivo; conditions: for pest or weed control at 1000 g/ha: 1000 Gramm/Hektar
Experimental: as §1

[17] = system: Pseudomonas aeruginosa; test: antibacterial activity, minimum inhibition concentration in liquid culture; format: cell-based; conditions: read-out: MIC(nM) of bacteria culture (Pseudomonas aeruginosa)
Experimental: A dilution series comprising the concentrations 500, 100, 50, 10 and 0 μmol 1^−1 of the individual compounds in LB medium is introduced into 5 culture microtubes in a volume of 0,5 ml. The tubes were inoculated with 10 μl of an overnight culture of E. coli K12 and shaken overnight at 37° C. The growth of the bacteria was assessed on the basis of the turbidity of the medium. The minimum concentration causing inhibition of bacterial growth was determined (minimum inhibition concentration MIC)
The antibacterial activity of P. aeruginosa was determined in the same manner.

[18] = system: Plasmodium falciparum; test: antimalaria activity on in vitro cultures, [3H]-hypoxanthine incorporation; format: cell-based; conditions: 72 h, inhibition of [3H]-hypoxanthine incorporation, 48 + 24 hours, read-out: IC50(nM) of malaria culture (Plasmodium falciparum)
Experimental: The antimalaria activity of the compounds listed on page 9 was determined on in vitro cultures of the malaria pathogen Plasmodium falciparum. The depressions of a 96-well microtitre plate were charged with in each case 200 μl of an asynchroneous Plasmodium falciparum culture at a parasitaemia of 0,4% and haematokrit of 2%. A serial dilution series of the compounds in triple steps between concentrations of 100 to 0,14 μmol 1^−1 was then prepared. The plates were incubated at 37° C., 3% CO2 and 5% O2 over a period of 48 hours. 30 μl medium supplemented with 27 μCi ml^−1 [^3H]-hypoxanthine were then added to each well. After incubation for 24 hours the parasites were harvested by filtration on a glass fibre filter and the radioactivity which had been incorporated was measured. The inhibition of the growth of parasites was measured as the percentage inhibition of the incorporation of tritium. Inhibition of the growth of the parasites has been determined as percentage inhibition of incorporation of tritium based on a comparison without the substance. The half-maximum inhibitory concentration (IC50) of the substance was determined by extrapolation of the values.

[19] = system: Abutilon theophrasti; test: herbicidal activity, Erde Vorauflauf; format: in vivo; conditions: for pest or weed control at 500 g/ha: 500 Gramm/Hektar
Experimental: as §1

[20] = system: Alopecurus myosuroides; test: herbicidal activity, Erde Vorauflauf; format: in vivo; conditions: for pest or weed control at 500 g/ha: 500 Gramm/Hektar
Experimental: as §1

[21] = system: Galium aperine; test: herbicidal activity, Erde Vorauflauf; format: in vivo; conditions: for pest or weed control at 500 g/ha: 500 Gramm/Hektar
Experimental: as §1

[22] = system: Sinapis arvensis; test: herbicidal activity, Erde Vorauflauf; format: in vivo; conditions: Mutarda arvensis; for pest or weed control at 500 g/ha: 500 Gramm/Hektar
Experimental: as §1

[23] = system: Setaria viridis; test: herbicidal activity, Erde Vorauflauf; format: in vivo; conditions: for pest or weed control at 500 g/ha: 500 Gramm/Hektar
Experimental: as §1

[24] = system: Cyperus esculentus; test: herbicidal activity, Erde Vorauflauf; format: in vivo; conditions: for pest or weed control at 500 g/ha: 500 Gramm/Hektar
Experimental: as §1

[25] = system: Avena fatua; test: herbicidal activity, Erde Vorauflauf; format: in vivo; conditions: for pest or weed control at 500 g/ha: 500 Gramm/Hektar
Experimental: as §1

[26] = system: Beta vulgaris; test: herbicidal activity, Erde Vorauflauf; format: in vivo; conditions: for plant injury at 500 g/ha: 500 Gramm/Hektar
Experimental: as §1

[27] = system: Amaranthus retroflexus; test: herbicidal activity, Erde Vorauflauf; format: in vivo; conditions: for pest or weed control at 500 g/ha: 500 Gramm/Hektar
Experimental: as §1

[28] = system: Zea mays; test: herbicidal activity, Erde Vorauflauf; format: in vivo; conditions: for plant injury at 500 g/ha: 500 Gramm/Hektar
Experimental: as §1

[29] = system: Xanthium strumarium; test: herbicidal activity, Erde Vorauflauf; format: in vivo; conditions: for pest or weed control at 500 g/ha: 500 Gramm/Hektar
Experimental: as §1

[30] = LB medium, overnight at 37° C., turbidity

O=C1CCON1CC(O)CP(=O)(O)O (stereo not drawn) [Compound 2]
pest or weed control at 500 g/ha [1]: 0%
pest or weed control at 500 g/ha [2]: 0%
pest or weed control at 500 g/ha [3]: 0%
pest or weed control at 500 g/ha [4]: 30%
pest or weed control at 500 g/ha [5]: 90%
pest or weed control at 500 g/ha [6]: 0%
pest or weed control at 500 g/ha [7]: 30%
plant injury at 500 g/ha [8]: 0%
pest or weed control at 500 g/ha [9]: 0%
plant injury at 500 g/ha [10]: 0%
pest or weed control at 500 g/ha [11]: 50%
IC50 [12]: 110 nM
pest or weed control at 1000 g/ha [13]: 0%
pest or weed control at 1000 g/ha [14]: 0%
pest or weed control at 1000 g/ha [15]: 0%
pest or weed control at 1000 g/ha [16]: 0%
MIC [17]: 1600 nM (≈ 0.36 µg/mL)
IC50 [18]: 1200 nM
pest or weed control at 500 g/ha [19]: 0%
pest or weed control at 500 g/ha [20]: 0%
pest or weed control at 500 g/ha [21]: 0%
pest or weed control at 500 g/ha [22]: 0%
pest or weed control at 500 g/ha [23]: 0%
pest or weed control at 500 g/ha [24]: 0%
pest or weed control at 500 g/ha [25]: 0%
plant injury at 500 g/ha [26]: 0%
pest or weed control at 500 g/ha [27]: 0%
plant injury at 500 g/ha [28]: 0%
pest or weed control at 500 g/ha [29]: 0%

CC1(C)CON(C(=O)CP(C)(=O)O)C1=O [Compound 1]
pest or weed control at 500 g/ha [1]: 40%
pest or weed control at 500 g/ha [2]: 50%
pest or weed control at 500 g/ha [3]: 90%
pest or weed control at 500 g/ha [4]: 95%
pest or weed control at 500 g/ha [5]: 95%
pest or weed control at 500 g/ha [6]: 0%
pest or weed control at 500 g/ha [7]: 50%
plant injury at 500 g/ha [8]: 70%
pest or weed control at 500 g/ha [9]: 0%
plant injury at 500 g/ha [10]: 80%
pest or weed control at 500 g/ha [11]: 60%
IC50 [12]: 22 nM
pest or weed control at 1000 g/ha [13]: 0%
pest or weed control at 1000 g/ha [14]: 80%
pest or weed control at 1000 g/ha [15]: 40%
pest or weed control at 1000 g/ha [16]: 50%
MIC [17, 30]: 500 nM (≈ 0.118 µg/mL)
IC50 [18]: 800 nM
pest or weed control at 500 g/ha [19]: 0%
pest or weed control at 500 g/ha [20]: 50%
pest or weed control at 500 g/ha [21]: 0%
pest or weed control at 500 g/ha [22]: 40%
pest or weed control at 500 g/ha [23]: 0%
pest or weed control at 500 g/ha [24]: 0%
pest or weed control at 500 g/ha [25]: 0%
plant injury at 500 g/ha [26]: 30%
pest or weed control at 500 g/ha [27]: 0%
plant injury at 500 g/ha [28]: 0%
pest or weed control at 500 g/ha [29]: 0%

CC(C)N(C)CCCN1OCCC1=O [Compound 7]
pest or weed control at 2000 g/ha ([1]; 2000 Gramm/Hektar): 50%
pest or weed control at 2000 g/ha ([2]; 2000 Gramm/Hektar): 80%
pest or weed control at 2000 g/ha ([3]; 2000 Gramm/Hektar): 95%
pest or weed control at 2000 g/ha ([4]; 2000 Gramm/Hektar): 80%
pest or weed control at 2000 g/ha ([5]; 2000 Gramm/Hektar): 90%
pest or weed control at 2000 g/ha ([6]; 2000 Gramm/Hektar): 0%
pest or weed control at 2000 g/ha ([7]; 2000 Gramm/Hektar): 80%
plant injury at 2000 g/ha ([8]; 2000 Gramm/Hektar): 70%
pest or weed control at 2000 g/ha ([9]; 2000 Gramm/Hektar): 50%
plant injury at 2000 g/ha ([10]; 2000 Gramm/Hektar): 70%
pest or weed control at 2000 g/ha ([11]; 2000 Gramm/Hektar): 90%
IC50 [12]: 18 nM
pest or weed control at 4000 g/ha ([13]; 4000 Gramm/Hektar): 30%
pest or weed control at 4000 g/ha ([14]; 4000 Gramm/Hektar): 40%
pest or weed control at 4000 g/ha ([15]; 4000 Gramm/Hektar): 0%
pest or weed control at 4000 g/ha ([16]; 4000 Gramm/Hektar): 30%
MIC [17, 30]: 9000 nM (≈ 1.8 µg/mL)
IC50 [18]: 400 nM
pest or weed control at 2000 g/ha ([19]; 2000 Gramm/Hektar): 0%
pest or weed control at 2000 g/ha ([20]; 2000 Gramm/Hektar): 30%
pest or weed control at 2000 g/ha ([21]; 2000 Gramm/Hektar): 0%
pest or weed control at 2000 g/ha ([22]; 2000 Gramm/Hektar): 30%
pest or weed control at 2000 g/ha ([23]; 2000 Gramm/Hektar): 0%
pest or weed control at 2000 g/ha ([24]; 2000 Gramm/Hektar): 0%
pest or weed control at 2000 g/ha ([25]; 2000 Gramm/Hektar): 30%
plant injury at 2000 g/ha ([26]; 2000 Gramm/Hektar): 70%
pest or weed control at 2000 g/ha ([27]; 2000 Gramm/Hektar): 20%
plant injury at 2000 g/ha ([28]; 2000 Gramm/Hektar): 30%
pest or weed control at 2000 g/ha ([29]; 2000 Gramm/Hektar): 0%
